# Tested on: alcohol dependent individuals
# Assay: Randomized, double-blind, placebo-controlled, 12-week clinical trial of ondansetron vs placebo in alcohol dependent individuals by genotype: drinks per drinking day (DDD)
# Type: in vivo, human
# Settings: for Drinks per Drinking Days, Least Squares Mean (Estimated Mean): OND
# Description: Two hundred and seventy eight male and female alcohol dependent individuals were entered into a randomized, double-blind, placebo-controlled, 12-week clinical trial. These individuals were divided into TT vs. […] The polymorphisms in 3''-UTR region of a gene may affect mRNA expression levels by altering their stability. […] Data was transformed to its natural log to correct for skewness. […] In total, ten SNPs in 5HT3a and nine SNPs in 5HT3b genes were analyzed in this study: […]
smiles,measurement,setting,value
"Cc1nccn1CC1CCc2c(c3ccccc3n2C)C1=O (stereo not drawn) [ondansetron, 9-methyl-3-[(2-methyl-1H-imidazol-1-yl)methyl]-1,2,3,9-tetrahydrocarbazol-4-one]","Estimate, OND vs. Placebo, drinks per drinking days (DDD)","AA or AC (RS1176719, RS17614942)",−2.83 DDD
same,"Estimate, OND vs. Placebo, drinks per drinking days (DDD)","AG or AC (RS1150226, RS17614942)",−2.12 DDD
same,"Estimate, OND vs. Placebo, drinks per drinking days (DDD)","AG or GG (RS1150226, RS1176713)",−2.43 DDD
same,"Least Squares Mean Difference, Drinks per Drinking Days, OND vs. Placebo",Among Comb (LL + TT or AC or AG),−1.75
same,"Least Squares Mean Difference, Drinks per Drinking Days, Comb vs. Others","Among OND, Comb = LL + TT or AC or AG",−2.21
same,"Least Squares Mean Difference, Drinks per Drinking Days, AG/AA vs. GG","Among OND, RS1150226",−1.91
same,"Least Squares Mean Difference, Drinks per Drinking Days, AC/AA vs. CC","Among OND, RS17614942",−2.13
same,"Least Squares Mean Difference, Drinks per Drinking Days, AC/AA vs. CC","Among OND, model RS17614942 (CC/AA, AC), Table 2G",−2.22
same,"Least Squares Mean Difference, Drinks per Drinking Days, OND vs. Placebo",Among RS1150226 AG/AA,−1.80
same,"Least Squares Mean Difference, Drinks per Drinking Days, OND vs. Placebo",Among RS17614942 AC/AA,−2.51
same,"Least Squares Mean, Drinks per Drinking Days",Comb (LL + TT or AC or AG),4.21
same,"Estimate, OND vs. Placebo, drinks per drinking days (DDD)","GG or AC (RS1176713, RS17614942)",−3.08 DDD
same,"Estimate, OND vs. Placebo, drinks per drinking days (DDD)","LL + AA (5-HTTLPR, RS1176719)",−5.22 DDD
same,"Estimate, OND vs. Placebo, drinks per drinking days (DDD)","LL + AA + AC (5-HTTLPR, RS1176719, RS17614942)",−5.96 DDD
same,"Estimate, OND vs. Placebo, drinks per drinking days (DDD)","LL + AC (5-HTTLPR, RS17614942)",−4.24 DDD
same,"Estimate, OND vs. Placebo, drinks per drinking days (DDD)","LL + AG (5-HTTLPR, RS1150226)",−3.06 DDD
same,"Estimate, OND vs. Placebo, drinks per drinking days (DDD)","LL + AG + AC (5-HTTLPR, RS1150226, RS17614942)",−4.09 DDD
same,"Drinks per Drinking Days, Least Squares Estimated Mean Difference","LL + CT/TT: OND vs. Placebo, simplified model",−1.55
same,"Estimate, OND vs. Placebo, drinks per drinking days (DDD)","LL + GG (5-HTTLPR, RS1176713)",−4.48 DDD
same,"Estimate, OND vs. Placebo, drinks per drinking days (DDD)","LL + TT (5-HTTLPR, RS1042173)",−2.08 DDD
same,"Estimate, OND vs. Placebo, drinks per drinking days (DDD)","LL + TT + AA (5-HTTLPR, RS1042173, RS1176719)",−8.50 DDD
same,"Estimate, OND vs. Placebo, drinks per drinking days (DDD)","LL or AA or AC (5-HTTLPR, RS1176719, RS17614942)",−1.55 DDD
same,"Estimate, OND vs. Placebo, drinks per drinking days (DDD)","LL or AC (5-HTTLPR, RS17614942)",−1.53 DDD
same,"Estimate, OND vs. Placebo, drinks per drinking days (DDD)","LL or AG (5-HTTLPR, RS1150226)",−1.37 DDD
same,"Estimate, OND vs. Placebo, drinks per drinking days (DDD)","LL or AG or AC (5-HTTLPR, RS1150226, RS17614942)",−1.43 DDD
same,"Estimate, OND vs. Placebo, drinks per drinking days (DDD)","LL or GG (5-HTTLPR, RS1176713)",−1.60 DDD
same,"Estimate, OND vs. Placebo, drinks per drinking days (DDD)","LL or GG or AC (5-HTTLPR, RS1176713, RS17614942)",−1.57 DDD
same,"Estimate, OND vs. Placebo, drinks per drinking days (DDD)","LL or TT (5-HTTLPR, RS1042173)",−0.87 DDD
same,"Estimate, OND vs. Placebo, drinks per drinking days (DDD)","LL or TT or AA (5-HTTLPR, RS1042173, RS1176719)",−0.99 DDD
same,"Estimate, OND vs. Placebo, drinks per drinking days (DDD)","LL or TT or AA or AC (5-HTTLPR, RS1042173, RS1176719, RS17614942)",−1.02 DDD
same,"Estimate, OND vs. Placebo, drinks per drinking days (DDD)","LL or TT or AC (5-HTTLPR, RS1042173, RS17614942)",−0.97 DDD
same,"Estimate, OND vs. Placebo, drinks per drinking days (DDD)","LL or TT or AG (5-HTTLPR, RS1042173, RS1150226)",−0.94 DDD
same,"Estimate, OND vs. Placebo, drinks per drinking days (DDD)","LL or TT or AG or AC (5-HTTLPR, RS1042173, RS1150226, RS17614942)",−0.93 DDD
same,"Estimate, OND vs. Placebo, drinks per drinking days (DDD)","LL or TT or GG (5-HTTLPR, RS1042173, RS1176713)",−0.94 DDD
same,"Reduction of DDD by ondansetron, carriers vs non-carriers of genotype combination",LL+AC/AA (5HTTLPR + rs17614942),3.33 sd
same,"Reduction of DDD by ondansetron, carriers vs non-carriers of genotype combination",LL+CT/TT (5HTTLPR + rs4938056),1.82 sd
same,"Drinks per Drinking Days, Least Squares Estimated Mean Difference","OND vs. Placebo, all genotypes, model RS17614942",−0.96
same,"Drinks per Drinking Days, Least Squares Estimated Mean Difference","OND vs. Placebo, all genotypes, model RS17614942 and 5-HTTLPR",−1.13
same,"Drinks per Drinking Days, Least Squares Mean (Estimated Mean)","5-HTTLPR LL, model 5-HTTLPR and RS1062613",4.80
same,"Drinks per Drinking Days, Least Squares Mean (Estimated Mean)","5-HTTLPR LL, model 5-HTTLPR and RS1150226",4.59
same,"Drinks per Drinking Days, Least Squares Mean (Estimated Mean)","5-HTTLPR LL, model RS4938056 and 5-HTTLPR",5.18
same,"Drinks per Drinking Days, Least Squares Mean (Estimated Mean)","5-HTTLPR LL, model RS17614942 and 5-HTTLPR",4.43
same,"Drinks per Drinking Days, Least Squares Mean (Estimated Mean)","5-HTTLPR LS/SS, model 5-HTTLPR and RS1062613",6.19
same,"Drinks per Drinking Days, Least Squares Mean (Estimated Mean)","5-HTTLPR LS/SS, model 5-HTTLPR and RS1150226",5.86
same,"Drinks per Drinking Days, Least Squares Mean (Estimated Mean)","5-HTTLPR LS/SS, model RS4938056 and 5-HTTLPR",6.54
same,"Drinks per Drinking Days, Least Squares Mean (Estimated Mean)","5-HTTLPR LS/SS, model RS17614942 and 5-HTTLPR",5.76
same,"Drinks per Drinking Days, Least Squares Mean (Estimated Mean)","LL + CT/TT, simplified model",4.61
same,"Drinks per Drinking Days, Least Squares Mean (Estimated Mean)","Others (not LL + CT/TT), simplified model",6.25
same,"Drinks per Drinking Days, Least Squares Mean (Estimated Mean)","RS1062613 TC/CC, model 5-HTTLPR and RS1062613",4.98
same,"Drinks per Drinking Days, Least Squares Mean (Estimated Mean)","RS1062613 TC/CC, model RS1062613",5.13
same,"Drinks per Drinking Days, Least Squares Mean (Estimated Mean)","RS1062613 TT, model 5-HTTLPR and RS1062613",6.02
same,"Drinks per Drinking Days, Least Squares Mean (Estimated Mean)","RS1062613 TT, model RS1062613",6.19
same,"Drinks per Drinking Days, Least Squares Mean (Estimated Mean)","RS1150226 AG/AA, model 5-HTTLPR and RS1150226",4.60
same,"Drinks per Drinking Days, Least Squares Mean (Estimated Mean)","RS1150226 AG/AA, model RS1150226",4.58
same,"Drinks per Drinking Days, Least Squares Mean (Estimated Mean)","RS1150226 GG, model 5-HTTLPR and RS1150226",5.85
same,"Drinks per Drinking Days, Least Squares Mean (Estimated Mean)","RS1150226 GG, model RS1150226",6.04
same,"Drinks per Drinking Days, Least Squares Mean (Estimated Mean)","RS4938056 CC, model RS4938056",6.67
same,"Drinks per Drinking Days, Least Squares Mean (Estimated Mean)","RS4938056 CC, model RS4938056 and 5-HTTLPR",6.42
same,"Drinks per Drinking Days, Least Squares Mean (Estimated Mean)","RS4938056 CT/TT, model RS4938056",5.43
same,"Drinks per Drinking Days, Least Squares Mean (Estimated Mean)","RS4938056 CT/TT, model RS4938056 and 5-HTTLPR",5.29
same,"Drinks per Drinking Days, Least Squares Mean (Estimated Mean)","RS17614942 AC/AA, model RS17614942",4.40
same,"Drinks per Drinking Days, Least Squares Mean (Estimated Mean)","RS17614942 AC/AA, model RS17614942 and 5-HTTLPR",4.37
same,"Drinks per Drinking Days, Least Squares Mean (Estimated Mean)","RS17614942 CC, model RS17614942",6.00
same,"Drinks per Drinking Days, Least Squares Mean (Estimated Mean)","RS17614942 CC, model RS17614942 and 5-HTTLPR",5.82
same,"Drinks per Drinking Days, Least Squares Mean (Estimated Mean)","all genotypes, model 5-HTTLPR and RS1062613",5.50
same,"Drinks per Drinking Days, Least Squares Mean (Estimated Mean)","all genotypes, model 5-HTTLPR and RS1150226",5.23
same,"Drinks per Drinking Days, Least Squares Mean (Estimated Mean)","all genotypes, model RS1062613",5.66
same,"Drinks per Drinking Days, Least Squares Mean (Estimated Mean)","all genotypes, model RS1150226",5.31
same,"Drinks per Drinking Days, Least Squares Mean (Estimated Mean)","all genotypes, model RS4938056",6.05
same,"Drinks per Drinking Days, Least Squares Mean (Estimated Mean)","all genotypes, model RS4938056 and 5-HTTLPR",5.86
same,"Drinks per Drinking Days, Least Squares Mean (Estimated Mean)","all genotypes, model RS17614942",5.20
same,"Drinks per Drinking Days, Least Squares Mean (Estimated Mean)","all genotypes, model RS17614942 and 5-HTTLPR",5.09
same,"Drinks per Drinking Days, Least Squares Mean (Estimated Mean)","all genotypes, simplified model, combined genotype LL + CT/TT vs Others",5.43
same,"Least Squares Mean, Drinks per Drinking Days",Others (not LL + TT or AC or AG),6.42
same,"Estimate, OND vs. Placebo, drinks per drinking days (DDD)",RS1042173 (TT),−0.86 DDD
same,"Least Squares Mean, Drinks per Drinking Days","RS1150226 AG (as printed, Table 3F)",6.08
same,"Least Squares Mean, Drinks per Drinking Days",RS1150226 AG/AA,4.20
same,"Least Squares Mean, Drinks per Drinking Days",RS1150226 GG,6.11
same,"Least Squares Mean, Drinks per Drinking Days","RS1150226 GG/AA (as printed, Table 3F)",4.19
same,"Least Squares Mean, Drinks per Drinking Days",RS17614942 AC,3.87
same,"Least Squares Mean, Drinks per Drinking Days",RS17614942 AC/AA,3.90
